Assay [1] concerns T2 Arabidopsis thaliana transformant (anti-sense AtPDX4). In words: Pyridoxine auxotrophy test: T2 seeds of anti-sense AtPDX4 transformant on MS medium with pyridoxine. Format: in vivo. The conditions noted are these: 2.5 mg/L pyridoxine-HCl; for seeds germinated to grow: MS medium with 12 mg/L PPT. As for the experimental part:
Arabidopsis thaliana was cultivated in a soil-filled pot or cultivated in a petri dish by using MS medium (Murashige and Skoog salts, Sigma, U.S.A.) containing 2% sucrose (pH 5.7) and 0.8% agar. In this study, vitamin B6 group (including pyridoxine) was excluded from the vitamin mixture used in the MS medium. The culture pot was incubated at 22° C. in a growth chamber and controlled by 16/8 hours of light and dark cycle. Meanwhile, in order to investigate whether the plant transformant becomes pyridoxine auxotroph mutant or not after transformed with anti-sense construct against AtPDX4 gene, T2 seed of Arabidopsis thaliana transformant was collected from T1 transformant and cultivated to estimate the reaction by adding pyridoxine. Above all, MS medium containing 12 mg/L PPT (phosphinothricine, Duchefa, Netherlands) was prepared and T2 seeds were treated at a low temperature (4° C.) for 3 days. 120 of T2 seeds were cultivated respectively on 2 (total 4) petri dishes of MS media (30 seeds per petri dish) with or without 2.5 mg/L of pyridoxine-HCl (Sigma, USA), so as to select T2 Arabidopsis thaliana transformant.

The test system is the same in assay [2]. The assay is described as follows: Phenotype recovery of T2 anti-sense AtPDX4 transformant by vitamin B6's. The assay is classed as in vivo. The conditions noted are these: 0.5 mg/L, 7 days. As for the experimental part: Arabidopsis thaliana was cultivated in a soil-filled pot or cultivated in a petri dish by using MS medium (Murashige and Skoog salts, Sigma, U.S.A.) containing 2% sucrose (pH 5.7) and 0.8% agar. In this study, vitamin B6 group (including pyridoxine) was excluded from the vitamin mixture used in the MS medium. The culture pot was incubated at 22° C. in a growth chamber and controlled by 16/8 hours of light and dark cycle.
Above all, in order to select T2 Arabidopsis transformant, MS medium containing 12 mg/L PPT (phosphinothricine, Duchefa, Netherlands) was prepared and T2 seeds were treated at a low temperature (4° C.) for 3 days. 120 of T2 seeds were cultivated on petri dishes containing MS media with or without 0.5 mg/L of pyridoxine-HCl (Sigma, USA), pyridoxamine-2HCl (Sigma, USA), pyridoxal-HCl (Sigma, USA) or pyridoxal-5-phosphate (Sigma, USA).

On to `Cc1ncc(CO)c(CO)c1O` [pyridoxine, 2-methyl-3-hydroxy-4,5-di(hydroxymethyl)pyridine], for which, in assay [1] (7 days), the “phenotype compared with wild type Arabidopsis thaliana” value is listed as “not to change in the phenotype remarkably” and the “seeds germinated to grow” value amounted to 22 seeds. For the same molecule, in assay [1] (19 days), the “phenotype compared with wild type Arabidopsis” value was “not to change in the phenotype such as growth retardation” and the “seeds germinated to grow” value came to 24 seeds. Also, the “phenotype of plant transformant” value in assay [2] is “not to change in the phenotype remarkably”. Also, the “seeds germinated to grow” value in assay [2] (MS medium with 12 mg/L PPT) is listed as 26 seeds.

These data come from patent US20090133153A1, “Polypeptide participating in pyridoxine biosynthesis, polynucleotide encoding the polypetide and those uses” (Genomine, Inc, priority 2004, published 2009).
